Literature values as cited in patent US11844783B2, “Formulations of bendamustine” (Eagle Pharmaceuticals, Inc., priority 2010, dated 2023).

Conditions: liquid form

In the case of `Cn1c(CCCC(=O)O)nc2cc(N(CCCl)CCCl)ccc21` [bendamustine, Bendamustine], the stability in water is given as “measured in hours”.
